Experimental data: ChEMBL document CHEMBL4417631, “Oral peptide inhibitors of interleukin-23 receptor and their use to treat inflammatory bowel diseases” (2017)
Where a SMILES comes first, the peptide text is derived from it. [ ]: non-standard residue; d: D form. The star is where a group is joined. Palmitoyl = CCCCCCCCCCCCCCCC(=O)*; hLeu = CC(C)CC[C@H](N)C(=O)O

Target: T1, Interleukin-23 receptor (Homo sapiens, UniProt Q5VWK5)
T1 sequence (Q5VWK5 whole entry): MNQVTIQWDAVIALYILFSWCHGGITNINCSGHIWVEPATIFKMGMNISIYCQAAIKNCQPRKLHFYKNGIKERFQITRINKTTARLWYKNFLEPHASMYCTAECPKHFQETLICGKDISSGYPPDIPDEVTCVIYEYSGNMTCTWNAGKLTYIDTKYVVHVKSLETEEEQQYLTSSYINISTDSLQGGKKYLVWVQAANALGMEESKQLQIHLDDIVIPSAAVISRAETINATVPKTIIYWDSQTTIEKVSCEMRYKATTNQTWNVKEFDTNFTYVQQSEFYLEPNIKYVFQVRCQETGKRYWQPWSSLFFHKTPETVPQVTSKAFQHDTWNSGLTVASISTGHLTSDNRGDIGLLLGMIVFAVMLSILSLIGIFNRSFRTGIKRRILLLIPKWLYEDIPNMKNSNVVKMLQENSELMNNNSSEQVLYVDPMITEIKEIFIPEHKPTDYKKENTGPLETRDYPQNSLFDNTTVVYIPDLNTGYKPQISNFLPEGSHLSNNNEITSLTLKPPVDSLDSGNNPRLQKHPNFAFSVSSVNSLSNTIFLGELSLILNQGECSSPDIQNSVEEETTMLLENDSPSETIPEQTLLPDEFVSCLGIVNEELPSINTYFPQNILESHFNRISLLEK
Assay: Inhibition of interleukin-23 binding to human interleukin-23 receptor incubated for 2 hrs by competitive binding ELISA

SMILES	IC50 [nM]
CC(=O)N[C@@H](CS)C(=O)N[C@@H](CCCCNC(=O)COCC(=O)NCCCC[C@H](NC(=O)[C@H](CS)NC(C)=O)C(=O)N[C@@H](CC(=O)O)C(=O)N[C@@H](Cc1c[nH]c2ccccc12)C(=O)N[C@H](C(=O)N[C@@H](CS)C(=O)N[C@@H](Cc1ccc(O)cc1)C(=O)N[C@@H](Cc1c[nH]c2ccccc12)C(=O)N[C@@H](Cc1cnc[nH]1)C(=O)N[C@H](C(=O)N[C@@H](Cc1ccccc1)C(=O)NCC(=O)O)[C@@H](C)O)C(C)C)C(=O)N[C@@H](CC(=O)O)C(=O)N[C@@H](Cc1c[nH]c2ccccc12)C(=O)N[C@H](C(=O)N[C@@H](CS)C(=O)N[C@@H](Cc1ccc(O)cc1)C(=O)N[C@@H](Cc1c[nH]c2ccccc12)C(=O)N[C@@H](Cc1cnc[nH]1)C(=O)N[C@H](C(=O)N[C@@H](Cc1ccccc1)C(=O)NCC(=O)O)[C@@H](C)O)C(C)C	> 10000
CC(=O)N[C@@H](CS)C(=O)N[C@@H](CCC(N)=O)C(=O)N[C@H](C(=O)N[C@@H](Cc1c[nH]c2ccccc12)C(=O)N[C@@H](CCC(N)=O)C(=O)N[C@@H](CS)C(=O)N[C@@H](Cc1ccc(O)cc1)C(=O)N[C@@H](Cc1c[nH]c2ccccc12)C(=O)N[C@@H](CC1CCCC1)C(=O)N[C@@H](CCC(=O)O)C(=O)N[C@@H](CC(N)=O)C(=O)NCC(=O)NCCOCC(=O)N[C@H](CCCCN)C(N)=O)[C@@H](C)O	< 500
CC(C)[C@H](NC(=O)[C@H](Cc1c[nH]c2ccccc12)NC(=O)[C@H](CC(=O)O)NC(=O)[C@H](C)NC(=O)[C@@H](N)C(C)(C)S)C(=O)N[C@H](C(=O)N[C@@H](Cc1ccc(O)cc1)C(=O)N[C@@H](Cc1c[nH]c2ccccc12)C(=O)N[C@@H](Cc1cnc[nH]1)C(=O)N[C@H](C(=O)N[C@@H](Cc1ccccc1)C(=O)NCC(N)=O)[C@@H](C)O)C(C)(C)S	> 6000
CC(C)[C@H](NC(=O)[C@H](Cc1cnc[nH]1)NC(=O)[C@H](Cc1c[nH]c2ccccc12)NC(=O)[C@H](Cc1ccc(O)cc1)NC(=O)[C@H](CS)NC(=O)[C@@H](NC(=O)[C@H](Cc1c[nH]c2ccccc12)NC(=O)[C@@H](NC(=O)[C@H](CCCNC(=N)N)NC(=O)[C@@H](N)CS)[C@@H](C)O)C(C)C)C(=O)N[C@@H](Cc1ccccc1)C(=O)NCC(N)=O (H-CRTWVCYWHVFG-NH2)	> 1000
CC(=O)N[C@H](CCCCN)C(=O)N[C@@H](CO)C(=O)N[C@@H](CS)C(=O)N[C@@H](C)C(=O)N[C@@H](CC(=O)O)C(=O)N[C@@H](Cc1c[nH]c2ccccc12)C(=O)N[C@H](C(=O)N[C@@H](CS)C(=O)N[C@@H](Cc1ccc(O)cc1)C(=O)N[C@@H](Cc1c[nH]c2ccccc12)C(=O)N[C@@H](Cc1cnc[nH]1)C(=O)N[C@H](C(=O)N[C@@H](Cc1ccccc1)C(=O)NCC(=O)O)[C@@H](C)O)C(C)C	> 1000
CC(C)[C@H](NC(=O)[C@H](Cc1c[nH]c2ccccc12)NC(=O)[C@H](CC(=O)O)NC(=O)[C@H](C)NC(=O)[C@H](CS)NC(=O)[C@H](CO)NC(=O)CCN)C(=O)N[C@@H](CS)C(=O)N[C@@H](Cc1ccc(O)cc1)C(=O)N[C@@H](Cc1c[nH]c2ccccc12)C(=O)N[C@@H](Cc1cnc[nH]1)C(=O)N[C@H](C(=O)N[C@@H](Cc1ccccc1)C(=O)NCC(=O)O)[C@@H](C)O	> 1000
CC(=O)N[C@@H](CS)C(=O)N[C@@H](C)C(=O)N[C@@H](CC(=O)O)C(=O)N[C@@H](Cc1c[nH]c2ccccc12)C(=O)N[C@H](C(=O)N[C@@H](CS)C(=O)N[C@@H](Cc1ccc(O)cc1)C(=O)N[C@@H](Cc1cccc2ccccc12)C(=O)N[C@@H](Cc1cnc[nH]1)C(=O)N[C@H](C)C(=O)N[C@@H](Cc1ccccc1)C(=O)NCC(N)=O)C(C)C	> 1000
CC(=O)N[C@@H](CS)C(=O)N[C@@H](CCC(N)=O)C(=O)N[C@H](C(=O)N[C@@H](Cc1c[nH]c2ccccc12)C(=O)N[C@@H](CCC(N)=O)C(=O)N[C@@H](CS)C(=O)N[C@@H](Cc1ccc(O)cc1)C(=O)N[C@@H](Cc1c[nH]c2ccccc12)C(=O)N[C@@H](CCONC(=N)N)C(=O)N[C@@H](CCC(=O)O)C(=O)N[C@@H](CC(N)=O)C(=O)NCC(=O)NCCOCC(=O)N[C@H](CCCCN)C(N)=O)[C@@H](C)O	< 500
CCCCCCCCCCCCCCCC(=O)NCCCC[C@H](NC(=O)[C@H](CCC(=O)O)NC(=O)[C@H](CC(C)C)NC(=O)[C@H](Cc1c[nH]c2ccccc12)NC(=O)[C@H](Cc1ccc(O)cc1)NC(=O)[C@H](CS)NC(=O)[C@H](CCC(N)=O)NC(=O)[C@H](Cc1c[nH]c2ccccc12)NC(=O)[C@@H](NC(=O)[C@H](CCC(N)=O)NC(=O)[C@H](CS)NC(C)=O)[C@@H](C)O)C(=O)NCC(N)=O (Ac-CQTWQCYWLEK(Palmitoyl)G-NH2)	> 6000

Continued, values first:

IC50 [nM]	SMILES
< 500	CC(=O)N[C@@H](CS)C(=O)N[C@@H](CCC(N)=O)C(=O)N[C@H](C(=O)N[C@@H](Cc1c[nH]c2ccccc12)C(=O)N[C@@H](CCC(N)=O)C(=O)N[C@@H](CS)C(=O)N[C@@H](Cc1ccc(O)cc1)C(=O)N[C@@H](Cc1c[nH]c2ccccc12)C(=O)N[C@@H](CCCNC(=N)N)C(=O)N[C@@H](CN)C(=O)N[C@@H](CC(N)=O)C(=O)NCC(=O)NCCOCC(=O)N[C@H](CCCCN)C(N)=O)[C@@H](C)O
100 to 1000	CC(=O)NCCCC[C@H](NC(=O)[C@](C)(CCCCN)NC(=O)[C@H](Cc1ccc2ccccc2c1)NC(=O)[C@H](Cc1cc(F)cc(F)c1)NC(=O)[C@@H](NC(=O)[C@H](CCC(N)=O)NC(=O)[C@H](Cc1c[nH]c2ccccc12)NC(=O)[C@@H](NC(=O)[C@H](CCC(N)=O)NC(=O)[C@@H](NC(C)=O)C(C)(C)S)[C@@H](C)O)C(C)(C)S)C(=O)N[C@@H](CC(N)=O)C(=O)NCC(N)=O
> 1000	CC(C)[C@H](NC(=O)[C@H](Cc1c[nH]c2ccccc12)NC(=O)[C@H](CC(=O)O)NC(=O)[C@H](C)NC(=O)[C@@H](N)CS)C(=O)N[C@@H](CS)C(=O)N[C@@H](Cc1ccc(O)cc1)C(=O)N[C@@H](Cc1cccc2ccccc12)C(=O)N(C)[C@@H](Cc1cnc[nH]1)C(=O)N[C@H](C(=O)N[C@@H](Cc1ccccc1)C(=O)O)[C@@H](C)O
> 10000	CC(=O)N[C@@H](CS)C(=O)N[C@@H](CCC(N)=O)C(=O)N[C@H](C(=O)N1CCC[C@H]1C(=O)N[C@@H](CCC(N)=O)C(=O)N[C@@H](CS)C(=O)N[C@@H](Cc1ccc(O)cc1)C(=O)N[C@@H](Cc1c[nH]c2ccccc12)C(=O)N[C@@H](CCC(C)C)C(=O)N[C@@H](CCC(=O)O)C(=O)N[C@@H](CC(N)=O)C(=O)NCC(N)=O)[C@@H](C)O (Ac-CQTPQCYW[hLeu]ENG-NH2)
> 1000	C[C@H](N)C(=O)N[C@@H](CS)C(=O)N[C@@H](CC(=O)O)C(=O)N[C@@H](Cc1c[nH]c2ccccc12)C(=O)N[C@@H](CS)C(=O)N[C@@H](CS)C(=O)N[C@@H](Cc1ccc(O)cc1)C(=O)N[C@@H](Cc1c[nH]c2ccccc12)C(=O)N[C@@H](CS)C(=O)N[C@H](C(=O)N[C@@H](Cc1ccccc1)C(=O)NCC(N)=O)[C@@H](C)O (H-ACDWCCYWCTFG-NH2)
> 30000	CC(=O)N[C@@H](CS)C(=O)N[C@@H](CCC(N)=O)C(=O)N[C@H](C(=O)N[C@@H](Cc1c[nH]c2ccccc12)C(=O)N[C@@H](CCC(N)=O)C(=O)N[C@@H](CS)C(=O)N[C@@H](Cc1ccc(O)cc1)C(=O)N[C@@H](Cc1c[nH]c2ccccc12)C(=O)N1CCC[C@H]1C(=O)N[C@@H](CCC(=O)O)C(=O)N[C@@H](CC(N)=O)C(=O)NCC(N)=O)[C@@H](C)O
> 1000	CC(=O)N[C@@H](CS)C(=O)N[C@@H](C)C(=O)N[C@@H](CC(=O)O)C(=O)N[C@@H](Cc1c[nH]c2ccccc12)C(=O)N[C@H](C(=O)N[C@@H](CS)C(=O)N[C@@H](Cc1ccc(O)cc1)C(=O)N[C@@H](Cc1cccc2ccccc12)C(=O)N[C@H](C)C(=O)N[C@H](C(=O)N[C@@H](Cc1ccccc1)C(=O)NCC(N)=O)[C@@H](C)O)C(C)C
6000	CC(=O)N[C@@H](CS)C(=O)N[C@@H](C)C(=O)N[C@@H](CC(=O)O)C(=O)N[C@@H](Cc1c[nH]c2ccccc12)C(=O)N[C@H](C(=O)N[C@@H](CS)C(=O)N[C@@H](Cc1ccc(O)cc1)C(=O)N[C@@H](Cc1c[nH]c2ccccc12)C(=O)N[C@@H](CCCN)C(=O)N[C@@](C)(CC(C)C)C(=O)N[C@@H](Cc1ccccc1)C(=O)NCC(=O)NCCOCC(=O)N[C@H](CCCCN)C(N)=O)C(C)C
80	CC(=O)N[C@@H](CS)C(=O)N(C)[C@@H](CCCCN)C(=O)N[C@H](C(=O)N[C@@H](Cc1c[nH]c2ccccc12)C(=O)N[C@@H](CCC(N)=O)C(=O)N[C@@H](CS)C(=O)N[C@@H](Cc1ccc(O)cc1)C(=O)N[C@@H](Cc1c[nH]c2ccccc12)C(=O)N[C@@H](CCCNC(=N)N)C(=O)N[C@H](C(=O)N[C@@H](Cc1ccccc1)C(=O)NCC(=O)NCCOCC(=O)N[C@H](CCCCN)C(N)=O)C(C)C)[C@@H](C)O
> 1000	CC(=O)N[C@@H](CS)C(=O)N[C@@H](CCC(N)=O)C(=O)N[C@H](C(=O)N[C@@H](Cc1c[nH]c2ccccc12)C(=O)N[C@@H](CCC(N)=O)C(=O)N[C@@H](CS)C(=O)N[C@@H](Cc1ccc(O)cc1)C(=O)N[C@@H](Cc1c[nH]c2ccccc12)C(=O)N[C@@H](CCCNC(=N)N)C(=O)N(C)[C@@H](CCCCN)C(=O)N[C@@H](CC(N)=O)C(=O)NCC(=O)NCCOCC(=O)N[C@H](CCCCN)C(N)=O)[C@@H](C)O
100 to 1000	CC(=O)N[C@H]1CCSC[C@@H](C(=O)N[C@@H](Cc2ccc(OCCN)cc2)C(=O)N[C@@H](Cc2ccc3ccccc3c2)C(=O)N[C@@](C)(CCCCN)C(=O)N[C@@H](CCC(=O)O)C(=O)N[C@@H](CC(N)=O)C(=O)NCC(N)=O)NC(=O)[C@H](CCC(N)=O)NC(=O)[C@@H]2Cc3c([nH]c4ccccc34)CN2C(=O)[C@H]([C@@H](C)O)NC(=O)[C@H](CCC(N)=O)NC1=O
